Measurements published in ChEMBL document CHEMBL4177602, “Zaluzanin C (ZC) induces osteoblast differentiation through regulating of osteogenic genes expressions in early stage of differentiation” (Bioorg Med Chem Lett, 2017).
Active and inactive are the calls of the source. The calls are words filed in the database; no cut-off is given here.

Tests used:
MC3T3-E1 [1] = test: Cytotoxicity against mouse MC3T3-E1 cells assessed as reduction in cell viability at 1 to 5 uM after 24 hrs by MTT assay; format: cell-based; conditions: mc3t3-e1, 24 h
MC3T3-E1 [2] = test: Induction of mineralization in mouse MC3T3-E1 cells at 5 uM after 14 days by alizarin red S staining based assay; format: functional, cell-based
C3H 10T1/2 [3] = test: Induction of osteoblast differentiation in mouse C3H10T1/2 cells assessed as increase in Dlx5 mRNA expression at 5 uM after 2 days by qPCR analysis; format: functional, cell-based
[4] = Increase in Runx2 (unknown origin) promoter activity expressed in mouse C3H10T1/2 cells at 5 uM after 48 hrs by luciferase reporter gene assay; format: cell-based
MC3T3-E1 [5] = test: Induction of osteoblast differentiation in mouse MC3T3-E1 cells assessed as increase in Dlx5 mRNA expression at 5 uM after 2 days by RT-PCR analysis; format: functional, cell-based
MC3T3-E1 [6] = test: Induction of osteoblast differentiation in mouse MC3T3-E1 cells assessed as increase in ALP activity at 5 uM after 4 days in presence of ascorbic acid/beta-GP BCIP/NBT liquid substrate based assay; format: functional, cell-based
MC3T3-E1 [7] = test: Induction of osteoblast differentiation in mouse MC3T3-E1 cells assessed as increase in ALP activity at 5 uM after 4 days BCIP/NBT liquid substrate based assay; format: functional, cell-based
C3H 10T1/2 [8] = test: Induction of osteoblast differentiation in mouse C3H10T1/2 cells assessed as increase in Id1 mRNA expression at 5 uM after 2 days by qPCR analysis; format: functional, cell-based
MC3T3-E1 [9] = test: Induction of osteoblast differentiation in mouse MC3T3-E1 cells assessed as increase in Id1 mRNA expression at 5 uM after 2 days by qPCR analysis; format: functional, cell-based
MC3T3-E1 [10] = test: Induction of osteoblast differentiation in mouse MC3T3-E1 cells assessed as increase in Runx2 protein level at 5 uM after 2 days by Western blot analysis; format: functional, cell-based
MC3T3-E1 [11] = test: Induction of mineralization in mouse MC3T3-E1 cells at 5 uM after 14 days in presence of ascorbic acid/beta-GP by alizarin red S staining based assay; format: functional, cell-based
C3H 10T1/2 [12] = test: Cytotoxicity against mouse C3H10T1/2 cells assessed as reduction in cell viability at 1 to 5 uM after 24 hrs by MTT assay; format: cell-based; conditions: c3h 10t1/2, 24 h
C3H 10T1/2 [13] = test: Cytotoxicity against mouse C3H10T1/2 cells assessed as reduction in cell viability at >10 uM after 24 hrs by MTT assay; format: cell-based; conditions: c3h 10t1/2, 24 h
MC3T3-E1 [14] = test: Induction of osteoblast differentiation in mouse MC3T3-E1 cells assessed as increase in Runx2 mRNA expression at 5 uM after 2 days by RT-PCR analysis; format: functional, cell-based
C3H 10T1/2 [15] = test: Induction of osteoblast differentiation in mouse C3H10T1/2 cells assessed as increase in Runx2 mRNA expression at 5 uM after 2 days by RT-PCR analysis; format: functional, cell-based
MC3T3-E1 [16] = test: Induction of osteoblast differentiation in mouse MC3T3-E1 cells assessed as increase in Dlx5 mRNA expression at 5 uM after 2 days by qPCR analysis; format: functional, cell-based
MC3T3-E1 [17] = test: Induction of osteoblast differentiation in Runx2 knockdown mouse MC3T3-E1 cells assessed as increase in ALP activity at 5 uM after 4 days BCIP/NBT liquid substrate based assay; format: functional, cell-based
C3H 10T1/2 [18] = test: Induction of osteoblast differentiation in mouse C3H10T1/2 cells assessed as increase in Runx2 protein level at 5 uM after 2 days by Western blot analysis; format: functional, cell-based
C3H 10T1/2 [19] = test: Induction of osteoblast differentiation in mouse C3H10T1/2 cells assessed as increase in Runx2 mRNA expression at 5 uM after 2 days by qPCR analysis; format: functional, cell-based
MC3T3-E1 [20] = test: Cytotoxicity against mouse MC3T3-E1 cells assessed as reduction in cell viability at >10 uM after 24 hrs by MTT assay; format: cell-based; conditions: mc3t3-e1, 24 h
MC3T3-E1 [21] = test: Induction of osteoblast differentiation in mouse MC3T3-E1 cells assessed as increase in Id1 mRNA expression at 5 uM after 2 days by RT-PCR analysis; format: functional, cell-based
MC3T3-E1 [22] = test: Increase in Runx2 (unknown origin) promoter activity expressed in mouse MC3T3-E1 cells at 5 uM after 48 hrs by luciferase reporter gene assay; format: cell-based
MC3T3-E1 [23] = test: Induction of osteoblast differentiation in mouse MC3T3-E1 cells assessed as increase in Runx2 mRNA expression at 5 uM after 2 days by qPCR analysis; format: functional, cell-based
C3H 10T1/2 [24] = test: Induction of osteoblast differentiation in mouse C3H10T1/2 cells assessed as increase in Dlx5 mRNA expression at 5 uM after 2 days by RT-PCR analysis; format: functional, cell-based
C3H 10T1/2 [25] = test: Induction of osteoblast differentiation in mouse C3H10T1/2 cells assessed as increase in Id1 mRNA expression at 5 uM after 2 days by RT-PCR analysis; format: functional, cell-based

C=C1[C@@H]2[C@H]3OC(=O)C(=C)[C@@H]3CCC(=C)[C@@H]2C[C@@H]1O [ZALUZANIN C]
Activity (MC3T3-E1 [1]): Non-Toxic
Activity (MC3T3-E1 [2]): Active
Activity (C3H 10T1/2 [3]): Active
Activity [4]: Active
Activity (MC3T3-E1 [5]): Active
Activity (MC3T3-E1 [6]): Active
Activity (MC3T3-E1 [7]): Active
Activity (C3H 10T1/2 [8]): Active
Activity (MC3T3-E1 [9]): Active
Activity (MC3T3-E1 [10]): Active
Activity (MC3T3-E1 [11]): Active
Activity (C3H 10T1/2 [12]): Non-Toxic
Activity (C3H 10T1/2 [13]): Toxic
Activity (MC3T3-E1 [14]): Active
Activity (C3H 10T1/2 [15]): Active
Activity (MC3T3-E1 [16]): Active
Activity (MC3T3-E1 [17]): inactive
Activity (C3H 10T1/2 [18]): Active
Activity (C3H 10T1/2 [19]): Active
Activity (MC3T3-E1 [20]): Toxic
Activity (MC3T3-E1 [21]): Active
Activity (MC3T3-E1 [22]): Active
Activity (MC3T3-E1 [23]): Active
Activity (C3H 10T1/2 [24]): Active
Activity (C3H 10T1/2 [25]): Active
